Assays:
Format in all cases: in vivo
corn rootworm = test: Mite/insect screen, CRW; details: percent mortality, read-out: CRW RESULTS %; for mortality at 12 ppm: CRW RATE 12.00 PPM; for mortality at 24 ppm: CRW RATE 24.00 PPM
Protocol: (§1) The compounds of Examples 1-295 were tested for miticidal and insecticidal activity in the following mite/insect screen.
(§2) Each test compound was formulated by dissolving the compound in acetone/alcohol (50:50) mixture containing 23 g of "TOXIMUL R" (sulfonate/nonionic emulsifier blend) and 13 g of "TOXIMUL S" (sulfonate/nonionic emulsifier blend) per liter. These mixtures were then diluted with water to give the indicated concentrations.
(§3) After standard exposure periods, percent mortality was evaluated. […]

[1] = system: Puccinia recondita tritici (leaf rust); test: Test 1 greenhouse foliar spray screen, leaf rust on wheat; details: disease control rating, foliar spray on wheat, 400 ppm (+++ at 100 ppm)
[2] = system: Erysiphe graminis tritici (powdery mildew); test: Test 1 greenhouse foliar spray screen, powdery mildew on wheat; details: disease control rating, foliar spray on wheat, 400 ppm (+++ at 100 ppm)
[3] = system: Twospotted spider mites (Tetranychus urticae Koch); test: Mite/insect screen, SM; details: for mortality at 200 ppm / mortality at 400 ppm: Tetranychus urticae, percent mortality, SAW, read-out: SM RESULTS %; for mortality at 200 ppm: SM & MA RATE 200 PPM; for mortality at 400 ppm: SM & MA RATE 400 PPM
Protocol: as §1, §2
(§4) Other plants in the same treatment pot were left uninfested. The leaves were then sprayed with 5 ml of test solution using a DeVilbiss atomizing sprayer at 10 psi. Both surfaces of the leaves were covered until runoff, and then allowed to dry for one hour. Two uninfested leaves were then excised and placed into a Petri dish containing southern armyworm (Spodopetra eridania Cramer).
as §3

[4] = system: Pseudoperonospora cubensis (downy mildew); test: Test 1 greenhouse foliar spray screen, downy mildew on squash; details: disease control rating, foliar spray on squash, 400 ppm (+++ at 100 ppm)
[5] = system: Botrytis cinerea (gray mold); test: Test 1 greenhouse foliar spray screen, gray mold on grape berries; details: disease control rating, spray on grape berries, 400 ppm (+++ at 100 ppm)
[6] = system: southern armyworm (Spodopetra eridania Cramer); test: Mite/insect screen, SAW; details: Spodoptera eridania, percent mortality, SAW, read-out: SAW RESULTS %; for mortality at 200 ppm: SM & MA RATE 200 PPM; for mortality at 400 ppm: SM & MA RATE 400 PPM
Protocol: as §1, §2, §4, §3

[7] = system: Pyricularia oryzae (rice blast); test: whole plant or invertebrate; details: disease control rating, foliar spray on rice, 400 ppm (+++ at 100 ppm)
[8] = system: melon aphids (Aphis gossypii Glover); test: Mite/insect screen, MA; details: Aphis gossypii, percent mortality, SAW, read-out: MA RESULTS %; for mortality at 200 ppm: SM & MA RATE 200 PPM; for mortality at 400 ppm: SM & MA RATE 400 PPM
Protocol: as §1, §2, §4, §3

Row | SMILES | mortality at 12 ppm (corn rootworm) | mortality at 24 ppm (corn rootworm) | LEAF RUST [1] | POWD MDEW [2] | mortality at 200 ppm [3] | mortality at 400 ppm [3] | DOWN MDEW [4] | GRAY MOLD [5] | mortality at 200 ppm [6] | mortality at 400 ppm [6] | RICE BLAST [7] | mortality at 200 ppm [8] | mortality at 400 ppm [8] | activity as miticides ([3]; summary statement in the description)
1 | Clc1ccc(CCNc2ccnc3c(Cl)cccc23)cc1 [Example 85, 8-chloro-N-[2-(4-chlorophenyl)ethyl]-4-quinolinamine] | 0% | 0% | + (20-89% control at 400 ppm) | - (0-19% control at 400 ppm) | 0% | 0% | - (0-19% control at 400 ppm) | - (0-19% control at 400 ppm) | 0% | 0% | - (0-19% control at 400 ppm) | 0% | 0% | –
2 | FC(F)(F)c1cccc2c(NCCc3ccc(Cl)cc3)ccnc12 [Example 86, N-[2-(4-chlorophenyl)ethyl]-8-(trifluoromethyl)-4-quinolinamine] | 0% | 0% | + (20-89% control at 400 ppm) | - (0-19% control at 400 ppm) | 0% | 0% | + (20-89% control at 400 ppm) | - (0-19% control at 400 ppm) | 0% | 0% | - (0-19% control at 400 ppm) | 0% | 0% | –
3 | Fc1cccc2c(NCCc3ccc(Oc4ccccc4)cc3)ccnc12 [Example 90, 8-fluoro-N-[2-(4-phenoxyphenyl)ethyl]-4-quinolinamine] | 0% | 0% | +++ (90-100% control at 100 ppm) | - (0-19% control at 400 ppm) | 80% | 0% | +++ (90-100% control at 100 ppm) | - (0-19% control at 400 ppm) | 100% | 0% | +++ (90-100% control at 100 ppm) | 80% | 0% | particularly excellent activity
4 | COc1ccccc1CCNc1ccnc2cc(Cl)ccc12 [Example 100, 7-chloro-N-[2-(2-methoxyphenyl)ethyl]-4-quinolinamine] | 0% | 0% | + (20-89% control at 400 ppm) | + (20-89% control at 400 ppm) | 0% | 0% | + (20-89% control at 400 ppm) | - (0-19% control at 400 ppm) | 0% | 0% | + (20-89% control at 400 ppm) | 0% | 0% | –
5 | Cc1cc(NCCc2ccc(Cl)cc2)c2ccccc2n1 [Example 102, N-[2-(4-chlorophenyl)ethyl]-2-methyl-4-quinolinamine] | 0% | 0% | - (0-19% control at 400 ppm) | + (20-89% control at 400 ppm) | 0% | 0% | - (0-19% control at 400 ppm) | - (0-19% control at 400 ppm) | 0% | 50% | + (20-89% control at 400 ppm) | 0% | 0% | –
6 | Cc1ccc(C)c2c(NCCc3ccc(Cl)cc3)ccnc12 [Example 109, N-[2-(4-chlorophenyl)ethyl]-5,8-dimethyl-4-quinolinamine] | – | 0% | ++ (90-100% control at 400 ppm) | + (20-89% control at 400 ppm) | – | 0% | +++ (90-100% control at 100 ppm) | - (0-19% control at 400 ppm) | – | 0% | + (20-89% control at 400 ppm) | – | 0% | –
7 | Nc1cccc2c(NCCc3ccc(Cl)cc3)ccnc12 [Example 110, N(4)-[2-(4-chlorophenyl)ethyl]-4,8-quinolinediamine] | 0% | 0% | ++ (90-100% control at 400 ppm) | - (0-19% control at 400 ppm) | 0% | 0% | ++ (90-100% control at 400 ppm) | - (0-19% control at 400 ppm) | 0% | 0% | + (20-89% control at 400 ppm) | 0% | 0% | –
8 | Clc1ccccc1CCNc1ccnc2c(Cl)cccc12 [Example 115, N-[2-(2-chlorophenyl)ethyl]-8-chloro-4-quinolinamine] | 0% | 0% | - (0-19% control at 400 ppm) | - (0-19% control at 400 ppm) | 0% | 0% | + (20-89% control at 400 ppm) | - (0-19% control at 400 ppm) | 0% | 0% | + (20-89% control at 400 ppm) | 0% | 0% | –
9 | CC(=O)N(CCc1ccc(Cl)cc1)c1ccnc2ccc(F)cc12 [Example 121, N-[2-(4-chlorophenyl)ethyl]-N-(6-fluoro-4-quinolinyl)acetamide] | 0% | 0% | ++ (90-100% control at 400 ppm) | + (20-89% control at 400 ppm) | 0% | 0% | + (20-89% control at 400 ppm) | - (0-19% control at 400 ppm) | 0% | 0% | - (0-19% control at 400 ppm) | 0% | 0% | –
10 | COc1ccc(CCN(C(C)=O)c2ccnc3cc(Cl)ccc23)cc1 [Example 125, N-(7-chloro-4-quinolinyl)-N-[2-(4-methoxyphenyl)ethyl]acetamide] | 0% | 0% | - (0-19% control at 400 ppm) | + (20-89% control at 400 ppm) | 0% | 0% | - (0-19% control at 400 ppm) | - (0-19% control at 400 ppm) | 0% | 0% | - (0-19% control at 400 ppm) | 0% | 0% | –
11 | CC(=O)N(CCc1ccc(Cl)cc1Cl)c1ccnc2cc(C(F)(F)F)ccc12 [Example 127, N-[2-(2,4-dichlorophenyl)ethyl]-N-[7-(trifluoromethyl)-4-quinolinyl]acetamide] | 0% | 0% | + (20-89% control at 400 ppm) | + (20-89% control at 400 ppm) | 0% | 0% | + (20-89% control at 400 ppm) | - (0-19% control at 400 ppm) | 0% | 0% | + (20-89% control at 400 ppm) | 0% | 0% | –
12 | CC(=O)N(CCc1ccc(C(C)(C)C)cc1)c1ccnc2c(F)cccc12 [Example 128, N-[4-(t-butyl)phenyl]ethyl-N-(8-fluoro-4-quinolinyl)acetamide] | 0% | 0% | + (20-89% control at 400 ppm) | - (0-19% control at 400 ppm) | 0% | 0% | - (0-19% control at 400 ppm) | - (0-19% control at 400 ppm) | 0% | 0% | + (20-89% control at 400 ppm) | 0% | 0% | –

Source: patent EP0326331B1, “Substituted quinolines and cinnolines” (Dow AgroSciences LLC, priority 1988, dated 1989)
